According to US6645976B1 (Eli Lilly and Company, priority 1994, dated 2003):
pIC50: −log10 of the molar value.

Test system: not given
Test: not given
Settings: not given

Compound | melting point
CCc1c(C(=O)C(N)=O)c2cc(OCCCCCC(=O)O)ccn2c1Cc1ccccc1-c1ccccc1 | 84 to 94 °C (dec.)

Target: T1, recombinant human secreted phospholipase A2 (Homo sapiens, UniProt P14555)
T1 sequence (P14555 21-144): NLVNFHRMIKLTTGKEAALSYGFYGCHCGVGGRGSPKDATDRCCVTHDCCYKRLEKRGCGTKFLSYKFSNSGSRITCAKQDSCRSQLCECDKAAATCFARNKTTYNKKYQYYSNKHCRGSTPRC
Test: sPLA2 Chromogenic Assay (Assay 1)
Type: biochemical
Settings: diheptanoyl thio-PC substrate, pH 7.5, 40° C. for 30 minutes, absorbance at 405 nanometers

Compound | pIC50
2-(3-(Biphenyl-2-yl-methyl)-8-(carboxymethyloxy)-2-ethylindolizine-1-yl)glyoxylamide diglycolate [Compound 59j] | 7.28
CCc1c(Cc2ccccc2)c2ccc(OCCCC(=O)O)cn2c1C(=O)C(N)=O [Compound 11, (1-Benzyl-6-(3-carboxypropyloxy)-2-ethylindolizin-3-yl)glyoxylamide] | 5.96
CCc1c(CC(N)=O)c2c(O)cccn2c1Cc1ccccc1-c1ccccc1 [Compound 20x, 2-(2-Ethyl-8-hydroxy-3-(o-phenylbenzyl)-indolizin-1-yl)acetamide] | 6.08
CCc1c(CC(N)=O)c2c(OCC(=O)OCc3ccccc3)cccn2c1Cc1ccccc1-c1ccccc1 [Compound 21x, 2-(8-(Benzyloxycarbonylmethyloxy)-2-ethyl-3-(o-phenylbenzyl)indolizin-1-yl)acetamide] | 6.85
CCc1c(CC(N)=O)c2c(OCC(=O)O)cccn2c1Cc1ccccc1-c1ccccc1 [Compound 22x, 2-(8-(Carboxymethyloxy)-2-ethyl-3-(o-phenylbenzyl)indolizin-1-yl)acetamide] | 7.85
CCc1c(CC(N)=O)c2c(OCC(=O)O)cccn2c1Cc1cccc(Cl)c1 [Compound 22y, 2-(8-(Carboxymethyloxy)-3-(m-chlorobenzyl)-2-ethylindolizin-1-yl)acetamide] | 7.82
CCc1c(C(=O)C(N)=O)c2c(OCC(=O)O)cccn2c1Cc1ccccc1 [Compound 40a, (3-Benzyl-8-(carboxymethyloxy)-2-ethylindolizin-1-yl)glyoxylamide] | 8.10
CCc1c(C(=O)C(=O)NC)c2c(OCC(=O)O)cccn2c1Cc1ccccc1 [Compound 40b, (3-Benzyl-8-(carboxymethyloxy)-2-ethylindolizin-1-yl)glyoxyl-N-methylamide, reference compound] | < 4.30
CCc1c(C(=O)C(=O)N(C)C)c2c(OCC(=O)O)cccn2c1Cc1ccccc1 [Compound 40c, (3-Benzyl-8-(carboxymethyloxy)-2-ethylindolizin-1-yl)glyoxyl-N,N-dimethylamide, reference compound] | < 4.30
Cc1c(C(=O)C(N)=O)c2c(OCC(=O)O)cccn2c1Cc1ccccc1 [Compound 40g, (3-Benzyl-8-(carboxymethyloxy)-2-methylindolizin-1-yl)glyoxylamide] | 8.10
CCc1c(C(=O)C(N)=O)c2c(OCC(=O)OC)cccn2c1Cc1cccs1 [Compound 51k] | 6.66
CCc1c(C(=O)C(N)=O)c2c(OCC(=O)O)cccn2c1CC1CCCCC1 [Compound 52b, 2-(8-Carboxymethyloxy-3-cyclohexylmethyl-2-ethylindolizin-1-yl)glyoxylamide] | 7.68
CCc1c(C(=O)C(N)=O)c2c(OCC(=O)O)cccn2c1CC1CCCCCC1 [Compound 52d, 2-(8-Carboxymethyloxy-3-cycloheptylmethyl-2-ethylindolizin-1-yl)glyoxylamide] | 7.64
CCCCCc1c(CC)c(C(=O)C(N)=O)c2c(OCC(=O)O)cccn12 [Compound 52e, 2-(8-Carboxymethyloxy-2-ethyl-3-pentylindolizin-1-yl)glyoxylamide] | 7.21
CCc1c(C(=O)C(N)=O)c2c(OCC(=O)O)cccn2c1CCc1ccccc1 [Compound 52i, 2-(8-(Carboxymethyoxy)-2-ethyl-3-(2-phenylethyl)indolizin-1-yl)glyoxylamide] | 7.29
CCc1c(C(=O)C(N)=O)c2c(OCC(=O)O)cccn2c1Cc1ccccc1Cc1ccccc1 [Compound 52j, 2-(8-(Carboxymethyloxy)-3-o-benzylbenzyl-2-ethylindolizin-1-yl)glyoxylamide] | 8.22
CCc1c(C(=O)C(N)=O)c2c(OCC(=O)O)cccn2c1Cc1cccs1 [Compound 52k, 2-(8-(Carboxymethyloxy)-2-ethyl-3-(thiophen-2-ylmethyl)indolizin-1-yl)glyoxylamide] | 7.96
CCc1c(C(=O)C(N)=O)c2c(OCC(=O)O)cccn2c1Cc1cccc(OC)c1 [Compound 52m, 2-(2-Ethyl-8-(carboxymethyloxy)-3-(m-methoxybenzyl)indolizine-1-yl)glyoxylamide] | 7.68
CCc1c(C(=O)C(N)=O)c2c(OCC(=O)O)cccn2c1Cc1ccccc1[N+](=O)[O-] [Compound 52n, 2-(2-Ethyl-8-(carboxymethyloxy)-3-(o-nitrobenzyl)indolizine-1-yl)glyoxylamide] | 7.44
CCCCCC1CCC(Cc2c(CC)c(C(=O)C(N)=O)c3c(OCC(=O)O)cccn23)CC1 (centres unmarked) [Compound 52o, 2-(8-(Carboxymethyloxy)-2-ethyl-3-(4-n-pentylcyclohexylmethyl)indolizin-1-yl)glyoxylamide] | 7.60
CCc1c(C(=O)C(N)=O)c2c(OCC(=O)OC(C)C(=O)OC3CCCCC3)cccn2c1Cc1ccccc1-c1ccccc1 (centres unmarked) [Compound 59e] | 7.26
CCc1c(C(=O)C(N)=O)c2c(OCc3nnnn3C(c3ccccc3)(c3ccccc3)c3ccccc3)cccn2c1Cc1ccccc1-c1ccccc1 [Compound 59l, 2-(3-(Biphenyl-2-yl-methyl)-2-ethyl-8-(1-tritytretrazol(-5-yl)methyloxy)indolizine-1-yl)glyoxylamide] | 6.96

More lines, now with the values ahead:

pIC50 | Compound
7.34 | NC(=O)C(=O)c1c(C2CC2)c(Cc2ccccc2)n2cccc(OCC(=O)O)c12 [Compound 52r, 2-(3-Benzyl-8-carboxymethyloxy-2-cyclopropylindolizin-1-yl)-glyoxylamide]
7.96 | CCCCc1ccc(Cc2c(CC)c(C(=O)C(N)=O)c3c(OCC(=O)O)cccn23)cc1 [Compound 52s, 2-(3-(p-n-Butylbenzyl)-8-(carboxymethyloxy)-2-ethylindolizin-1-yl)glyoxylamide]
7.54 | NC(=O)C(=O)c1c(C2CC2)c(CC2CCCC2)n2cccc(OCC(=O)O)c12 [Compound 52v, 2-(8-(Carboxymethyloxy)-3-cyclopentylmethyl-2-cyclopropylindolizin-1-yl)glyoxylamide]
7.85 | Cc1c(C(=O)C(N)=O)c2c(OCC(=O)O)cccn2c1CC1CCCC1 [Compound 52w, 2-(8-(Carboxymethyloxy)-3-cyclopentylmethyl-2-methylindolizin-1-yl)glyoxylamide]
7.10 | CCc1c(C(=O)C(N)=O)c2c(OCC(=O)OC)cccn2c1Cc1cccc(-c2ccccc2)c1 [Compound 57g, 2-(8-Carbomethoxymethyloxy-2-ethyl-3-(m-phenylbenzyl)indlolin-1-yl)glyoxylamide]
6.10 | COC(=O)COc1cccn2c(Cc3cccc4ccccc34)c(C3CC3)c(C(=O)C(N)=O)c12 [Compound 57j, 2-(8-Carbomethoxymethyloxy-2-cyclopropyl-3-(1-naphthylmethyl)indlolin-1-yl)glyoxylamide]
8.10 | Cc1c(C(=O)C(N)=O)c2c(OCC(=O)O)cccn2c1Cc1ccccc1-c1ccccc1 [Compound 58a, 2-(3-(Biphenyl-2-ylmethyl)-8-carboxymethoxyl-2-methylindolizin-1-yl)glyoxylamide]
7.46 | CC(C)c1c(C(=O)C(N)=O)c2c(OCC(=O)O)cccn2c1Cc1ccccc1-c1ccccc1 [Compound 58c]
7.96 | CCc1c(C(=O)C(N)=O)c2c(OCC(=O)OC(C)OC(=O)OC)cccn2c1Cc1ccccc1-c1ccccc1 (centres unmarked) [Compound 59b, 2-(3-Biphenyl-2-ylmethyl-8-(1-methoxycarbonyloxyethoxycarbonylmethoxy)-2-ethylindolizin-1-yl)glyoxylamide]
7.34 | CCc1c(C(=O)C(N)=O)c2c(OCC(=O)OC(C)OC(=O)OC(C)C)cccn2c1Cc1ccccc1-c1ccccc1 (centres unmarked) [Compound 59c, 2-(3-Biphenyl-2-ylmethyl-2-ethyl-8-(1-isopropyloxycarbonyloxyethoxycarbonylmethoxy)indolizin-1-yl)glyoxylamide]
7.21 | CCc1c(C(=O)C(N)=O)c2c(OCC(=O)OCCC(=O)OC3(C)CCCC3)cccn2c1Cc1ccccc1-c1ccccc1 [Compound 59h, 2-(3-Biphenyl-2-ylmethyl-2-ethyl-8-(1-methylcyclopentyloxycarbonylethyloxycarbonyl-methyloxy)-indolizin-1-yl)glyoxylamide]
6.70 | CCc1c(C(=O)C(N)=O)c2cc(OCCCC(=O)O)ccn2c1Cc1ccccc1 [Compound 67a, 2-(3-Benzyl-7-(3-carboxylpropyloxy)-2-ethylindolizin-1-yl)glyoxylamide]
6.85 | CCc1c(C(=O)C(N)=O)c2cc(OCCCC(=O)O)ccn2c1Cc1ccccc1-c1ccccc1 [Compound 67c, 2-(7-(3-Carboxypropyloxy)-2-ethyl-3-(o-phenylbenzyl)indolizin-1-yl)glyoxylamide]
7.36 | CCc1c(C(=O)C(N)=O)c2c(OCCC(=O)O)cccn2c1Cc1ccccc1-c1ccccc1 [Compound 70a, 2-(3-(Biphenyl-2-yl-methyl)-8-(carboxyethyloxy)-2-ethylindolizine-1-yl)glyoxylamide]
6.62 | CCc1c(C(=O)C(N)=O)c2cc(OCCC(=O)O)ccn2c1Cc1ccccc1-c1ccccc1 [Compound 70b]
6.22 | CCOC(=O)CCCOc1ccn2c(Cc3ccccc3-c3ccccc3)c(CC)c(CC(N)=O)c2c1 [Compound 71a, 2-(7-(3-Carbethoxypropyloxy)-2-ethyl-3-(o-phenylbenzyl)indolizin-1-yl)acetamide]
6.92 | COC(=O)COc1cccn2c(Cc3ccccc3-c3ccccc3)c(SC)c(C(=O)C(N)=O)c12 [Compound 82, 2-(8-(Carbomethoxymethyloxy)-2-methylthio-3-(o-phenylbenzyl)indolizin-1-yl)glyoxylamide]
7.80 | CSc1c(C(=O)C(N)=O)c2c(OCC(=O)O)cccn2c1Cc1ccccc1-c1ccccc1 [Compound 83, 2-(8-(Carboxymethyloxy)-2-methylthio-3-(o-phenylbenzyl)indolizin-lyl)-glyoxylamide]
